Patent US20150094294A1, “COMPOUNDS AND METHODS FOR TREATING MALARIA” (Cellceutix Corporation, priority 2012, published 2015)
In brackets after ≈: the same amount, converted by molar mass.

How the values were obtained:
Type in all cases: cell-based
[1] = tested on: HepG2 cells; assay: Cytotoxicity against HepG2 cells
[2] = tested on: P. falciparum 3D7 (chloroquine-sensitive); assay: Anti-malarial activity, P. falciparum 3D7 culture, 72 hour, DNA content by flow cytometry; conditions: synchronized ring-stage parasites
Experimental: Numerous compounds were screened in cultures of the malaria parasite P. falciparum 3D7 (chloroquine-sensitive) and DD2 (chloroquine-resistant). The compounds were also screened for toxixcity against 3T3 cells, HepG2 cells, and in a hemolysis assay. In brief, P. falciparum parasites were cultured in RPMI 1640 (Invitrogen) supplemented with Albumax II (Invitrogen). For synchronization, schizont stage parasites were magnet purified using a SuperMACS™ II Cell Separation Unit (Miltenyi Biotech). For IC50 determinations, synchronized ring-stage parasites were plated at 0.5% parasitemia and 8% hematocrit in 96-well plates at a total volume of 50 μL. Serial dilutions of 2× concentration of the respective compound, ranging from 2.5 μM to 20 nM, were added to the wells to bring the total volume up to 100 μL and 4% hematocrit. Compounds were assayed for a 72 hour period, after which the cultures were fixed with a solution of 4% paraformaldehyde and 0.08% glutaraldhyde in PBS. The cells were then permeabilized with 0.25% Triton X-100, and SYTOX Green Nucleic Acid Stain (Invitrogen) in PBS was added to a final concentration of 5 μM. DNA content, as an indicator of parasitemia, was analyzed on an Accuri C6 Flow Cytometer with C-Sampler. IC50 curves were generated using GraphPad Prism (GraphPad Software).

[3] = tested on: 3T3 cells; assay: Cytotoxicity against 3T3 cells
[4] = Cytotoxicity against HepG2 cells; conditions: human, HepG2 cells; read-out: Cytotoxicity HepG2 EC50
[5] = Cytotoxicity against 3T3 cells; conditions: mouse, 3T3 cells; read-out: Cytotoxicity 3T3 EC50
[6] = in vitro
[7] = Plasmodium falciparum, 3D7, 72 h

Row | Structure (SMILES) | EC50 [1] [µM] | IC50 [2] [µM] | EC50 [3] [µM] | EC50 [4] [µM] | IC50 [2, 7] [µM] | EC50 [5] [µM] | EC50 [6] [mg/L]
1 | Nc1cc(NC(=O)c2cc(C(=O)Nc3ccc(N4CCNCC4)c(F)c3)ncn2)ccc1N1CCNCC1 [Compound 218] | 233 | 0.056 | 46 | – | – | – | –
2 | N=C(N)NCCc1cccc(NC(=O)Nc2cccc(CCNC(=N)N)c2)c1 [Compound 269] | > 1000 | 0.32 | > 1000 | – | – | – | –
3 | c1cc2sc3ccc(N4CCNCC4)cc3c2cc1N1CCNCC1 [Compound 291] | 410 | > 0.1 | 345 | – | – | – | –
4 | N=C(N)NCCc1cccc(-c2ccc(-c3cccc(CCNC(=N)N)c3)cc2)c1 [Compound 239] | 288 | 0.102 | 149 | – | – | – | –
5 | NCCc1cccc(-c2cn(-c3cccc(CCN)c3)nn2)c1 [Compound 250] | > 1000 | 0.556 | > 1000 | – | – | – | –
6 | N=C(N)NCCCOc1cccc(-c2cncc(-c3ccc(-c4cncc(-c5cccc(OCCCNC(=N)N)c5)c4)s3)c2)c1 [Compound 227] | 117 | 0.65 | 54 | – | – | – | –
7 | NCCc1cccc(-c2ccc(-c3cccc(CCN)c3)o2)c1 [Compound 237] | 222 | > 2 | 2 | – | – | – | –
8 | CCn1c2ccc(C3=CCN(C(=N)N)CC3)cc2c2cc(C3=CCN(C(=N)N)CC3)ccc21 [Compound 287] | 200 | > 0.1 | 84 | – | – | – | –
9 | NCCc1cccc(-c2ccc(-c3cccc(CCN)c3)s2)c1 [Compound 236] | 186 | > 2 | < 14 | – | – | – | –
10 | CN(C)C1CCN(c2ccc(NC(=O)c3cc(C(=O)Nc4ccc(N5CCC(N(C)C)CC5)cc4)ncn3)cc2)CC1 [Compound 213] | 51 | 0.035 | 244 | – | – | – | –
11 | CC1(C)c2cc(-c3cccc(CCN)c3)ccc2-c2ccc(-c3cccc(CCN)c3)cc21 [Compound 281] | 5 | > 0.1 | 2 | – | – | – | –
12 | CN1CCN(c2ccc(-c3ccc(-c4ccc(N5CCN(C)CC5)cc4)s3)cc2)CC1 [Compound 260] | > 1000 | > 0.1 | > 1000 | – | – | – | –
13 | N=C(N)NCCSc1ccc(NC(=O)Nc2ccc(OC3CCN(C(=N)N)C3)c(C(F)(F)F)c2)cc1C(F)(F)F (stereo not drawn) [Compound 272] | 214 | 0.038 | 65 | – | – | – | –
14 | NCCc1ccc(-c2ccc(-c3ccc(CCN)cc3)s2)cc1 [Compound 247] | 74 | 0.034 | < 14 | – | – | – | –
15 | CN(C)CCSc1ccc(NC(=O)c2cc(C(=O)Nc3ccc(SCCN(C)C)cc3)ncn2)cc1 [Compound 202] | 648 | 0.007 | 632 | – | – | – | –
16 | N=C(N)NCCc1cccc(-c2cn(-c3cccc(CCNC(=N)N)c3)nn2)c1 [Compound 256] | > 1000 | 0.059 | > 1000 | – | – | – | –
17 | NCCc1cccc(-c2cc(-c3ccc(-c4cc(-c5cccc(CCN)c5)ncn4)s3)ncn2)c1 [Compound 229] | 262 | 0.628 | 3 | – | – | – | –
18 | CCn1c2ccc(N3CCC(N(C)C)CC3)cc2c2cc(N3CCC(N(C)C)CC3)ccc21 [Compound 298] | > 1000 | – | > 1000 | – | – | – | –
19 | CN(C)C1CCN(c2ccc3sc4ccc(N5CCC(N(C)C)CC5)cc4c3c2)CC1 [Compound 297] | 675 | – | 518 | – | – | – | –
20 | NCCSc1c(NC(=O)c2cccnc2)cc(C(F)(F)F)cc1NC(=O)c1cc(C(=O)Nc2cc(C(F)(F)F)cc(NC(=O)c3cccnc3)c2SCCN)ncn1 [Compound 315] | 34 | – | 21 | – | – | – | –
21 | NCCCc1ccc(-c2ccc(-c3ccc(CCCN)cc3)s2)cc1 [Compound 263] | 1 | – | 6 | – | – | – | –
22 | c1cc2sc3ccc(NC4CCNCC4)cc3c2cc1NC1CCNCC1 [Compound 295] | > 1000 | – | > 1000 | – | – | – | –

Row | Structure (SMILES) | EC50 [1] [µM] | IC50 [2] [µM] | EC50 [3] [µM] | EC50 [4] [µM] | IC50 [2, 7] [µM] | EC50 [5] [µM] | EC50 [6] [mg/L]
23 | C[N+]1(C)CCN(c2ccc(-c3ccc(-c4ccc(N5CC[N+](C)(C)CC5)cc4)o3)cc2)CC1 [Compound 264] | > 1000 | – | > 1000 | – | – | – | –
24 | N#Cc1cccc(C(=O)Nc2cc(C(F)(F)F)cc(NC(=O)c3cc(C(=O)Nc4cc(C(F)(F)F)cc(NC(=O)c5cccc(C#N)c5)c4O[C@@H]4CCNC4)ncn3)c2O[C@@H]2CCNC2)c1 [Compound 186] | – | – | – | > 1000 | 0.177 | 63 | 107 (≈ 117 µM)
25 | N=C(N)N1CCN(c2ccc(-c3cc(-c4ccc(N5CCN(C(=N)N)CC5)cc4)ncn3)cc2)CC1 [Compound 153] | – | – | – | 453 | 0.0771 | 311 | 116 (≈ 239 µM)
26 | CC(=O)Nc1cc(C(F)(F)F)cc(NC(=O)c2cc(C(=O)Nc3cc(C(F)(F)F)cc(N)c3SCCN)ncn2)c1SCCN [Compound 203] | – | – | – | 45 | 0.085 | 15 | 66 (≈ 97.5 µM)
27 | N#Cc1ccc(C(=O)Nc2cc(C(F)(F)F)cc(NC(=O)c3cc(C(=O)Nc4cc(C(F)(F)F)cc(N)c4SCCN)ncn3)c2SCCN)cc1 [Compound 308] | – | – | – | 34 | > 0.1 | 22 | 2 (≈ 2.62 µM)
28 | CN1CC[C@@H](Oc2ccc(NC(=O)c3cc(C(=O)Nc4ccc(O[C@@H]5CCN(C)C5)c(C(F)(F)F)c4)ncn3)cc2C(F)(F)F)C1 [Compound 204] | – | – | – | 483 | 0.103 | 477 | 88 (≈ 135 µM)
29 | c1cc(N2CCNCC2)ccc1-c1ccc(-c2ccc(N3CCNCC3)cc2)s1 [Compound 252] | – | – | – | > 1000 | 0.004 | > 1000 | 12 (≈ 29.7 µM)
30 | NCCSc1c(NC(=O)c2cccc(F)c2)cc(C(F)(F)F)cc1NC(=O)c1cc(C(=O)Nc2cc(C(F)(F)F)cc(NC(=O)c3cccc(F)c3)c2SCCN)ncn1 [Compound 305] | – | – | – | 904 | 0.078 | 898 | 223 (≈ 254 µM)
31 | N=C(N)N1CCN(c2ccc(-c3ccc(-c4ccc(N5CCN(C(=N)N)CC5)nc4)s3)cn2)CC1 [Compound 254] | – | – | – | 49 | 0.154 | 32 | 36 (≈ 73.4 µM)
32 | NC1CCC(Oc2ccc(NC(=O)c3cc(C(=O)Nc4ccc(OC5CCC(N)CC5)cc4)ncn3)cc2)CC1 (stereo not drawn) [Compound 200] | – | – | – | 37 | 0.004 | 27 | 24 (≈ 44.1 µM)
33 | N=C(N)N1CCN(c2ccc(-c3cccc(-c4ccc(N5CCN(C(=N)N)CC5)nc4)c3)cn2)CC1 [Compound 258] | – | – | – | 305 | 0.058 | 165 | 545 (≈ 1120 µM)
34 | O=C(Nc1ccc(O[C@@H]2CCNC2)cc1)c1cccc(C(=O)Nc2ccc(O[C@@H]3CCNC3)cc2)n1 [Compound 193] | – | – | – | > 1000 | 0.045 | > 1000 | > 1000
35 | N=C(N)NCCCc1cccc(-c2cncc(-c3cccc(CCCNC(=N)N)c3)c2)c1 [Compound 132] | – | – | – | 456 | 0.112 | 323 | > 1000
36 | O=C(Nc1ccc(O[C@@H]2CCNC2)cc1)c1ccnc(C(=O)Nc2ccc(O[C@@H]3CCNC3)cc2)c1 [Compound 195] | – | – | – | > 1000 | 0.045 | > 1000 | > 1000
37 | COc1cc(SCCNC(=N)N)c(C(F)(F)F)cc1NC(=O)c1cc(C(=O)Nc2cc(C(F)(F)F)c(SCCNC(=N)N)cc2OC)nc(SCCNC(=N)N)n1 [Compound 184] | – | – | – | > 1000 | 0.129 | 478 | 4 (≈ 4.62 µM)
38 | NCCCOc1cccc(-n2cc(-c3ccc4ccc(-c5cn(-c6cccc(OCCCN)c6)nn5)cc4c3)nn2)c1 [Compound 152] | – | – | – | 502 | 0.0883 | 406 | 0.8 (≈ 1.43 µM)
39 | COc1cc(SCCN)c(C(F)(F)F)cc1NC(=O)c1cc(C(=O)Nc2cc(C(F)(F)F)c(SCCN)cc2OC)nc(SCCN)n1 [Compound 183] | – | – | – | 739 | 0.383 | 694 | 5 (≈ 6.76 µM)
40 | N#Cc1cc(NC(=O)c2cc(C(=O)Nc3ccc(O[C@@H]4CCNC4)c(C#N)c3)ncn2)ccc1O[C@@H]1CCNC1 [Compound 206] | – | – | – | > 1000 | 0.179 | > 1000 | > 1000
41 | COc1ccc(C(=O)Nc2cc(C(F)(F)F)cc(NC(=O)c3cc(C(=O)Nc4cc(C(F)(F)F)cc(NC(=O)c5ccc(OC)cc5)c4SCCN)ncn3)c2SCCN)cc1 [Compound 310] | – | – | – | 884 | 0.084 | > 1000 | 81 (≈ 89.7 µM)
42 | Cn1c(-c2ccc(N3CCN(C(=N)N)CC3)cc2)cnc1-c1ccc(N2CCN(C(=N)N)CC2)cc1 [Compound 261] | – | – | – | 932 | 0.078 | > 1000 | > 1000
43 | CN(C)C1CCN(c2ccc(NC(=O)c3ccnc(C(=O)Nc4ccc(N5CCC(N(C)C)CC5)cc4)c3)cc2)CC1 [Compound 217] | – | – | – | > 1000 | > 0.1 | > 1000 | > 1000
44 | N=C(N)N1CCN(c2ccc(-c3ccc(-c4ccc(N5CCN(C(=N)N)CC5)cc4)s3)cc2)CC1 [Compound 253] | – | – | – | 606 | 0.107 | 419 | 8 (≈ 16.4 µM)
